In the test the target is T1, human PAD4 (Homo sapiens, UniProt Q9UM07).
T1 construct: human PAD4 (NM_012387), A2P663, was PCR amplified; His-SUMO (N, cleaved yes); made in house; host or cells: E. coli BL21(DE3)
Description: In vitro PAD4 BAEE biochemical assay. The following applies: human PAD4, BAEE substrate; 5 nM PAD4, 2 mM calcium chloride, 3 mM BAEE; geometric mean of multiple experiments. An outline of the steps: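 Ammonia release from BAEE deimination monitored by o-phthalaldehyde amine coupling (1 h, 25 °C) after EDTA stop. Final conditions: 5 nM tag-free recombinant human PAD4 (E. coli), 2 mM CaCl2, 3 mM BAEE, pH 7.6 MOPS with DTT; 30 min compound preincubation, then 2 h reaction at 25 °C.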

T1 sequence (Q9UM07 2-663): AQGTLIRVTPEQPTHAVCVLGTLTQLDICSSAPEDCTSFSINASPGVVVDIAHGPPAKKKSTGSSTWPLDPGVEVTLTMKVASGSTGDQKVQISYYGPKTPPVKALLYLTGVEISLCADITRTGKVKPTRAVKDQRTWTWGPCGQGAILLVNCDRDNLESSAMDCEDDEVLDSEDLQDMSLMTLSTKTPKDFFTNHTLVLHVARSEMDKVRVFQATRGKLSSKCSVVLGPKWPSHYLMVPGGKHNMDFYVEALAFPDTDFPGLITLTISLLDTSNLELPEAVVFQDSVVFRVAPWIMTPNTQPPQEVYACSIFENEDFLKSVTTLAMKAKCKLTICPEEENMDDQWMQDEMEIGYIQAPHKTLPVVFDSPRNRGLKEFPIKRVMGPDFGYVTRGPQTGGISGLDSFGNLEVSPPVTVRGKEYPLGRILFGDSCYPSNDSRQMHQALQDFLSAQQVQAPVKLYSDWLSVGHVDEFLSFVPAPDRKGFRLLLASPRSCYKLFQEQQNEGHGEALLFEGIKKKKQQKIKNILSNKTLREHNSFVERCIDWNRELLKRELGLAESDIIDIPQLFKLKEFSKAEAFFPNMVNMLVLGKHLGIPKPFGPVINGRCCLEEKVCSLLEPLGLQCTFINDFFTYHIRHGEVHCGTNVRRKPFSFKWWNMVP

As for `COc1cc(C(=O)N[C@@H]2CC[C@@H](C)NC2)cc2nc(-c3cc4ccc(N(C(F)F)S(C)(=O)=O)nc4n3CC3CC3)c(C)n12` [Example 314, 2-[1-(cyclopropylmethyl)-6-[difluoromethyl (methylsulfonyl)amino]pyrrolo[2,3-b]pyridin-2-yl]-5-methoxy-3-methyl-~{N}-[(3~{R},6~{R})-6-methylpiperidin-3-yl]imidazo[1,2-a] pyridine-7-carboxamide], the IC50 – broadly, the concentration at which inhibition is half-maximal – came out at 38700 nM.
The same measure for `COc1cc(C(=O)N[C@@H]2CC[C@H](C)NC2)cc2nc(-c3cc4ccc(N(C(F)F)S(C)(=O)=O)nc4n3CC3CC3)c(C)n12` [Example 315, 2-[1-(cyclopropylmethyl)-6-[difluoromethyl (methylsulfonyl)amino]pyrrolo[2,3-b]pyridin-2-yl]-5-methoxy-3-methyl-~{N}-[(3~{R},6~{S})-6-methylpiperidin-3-yl]imidazo[1,2-a] pyridine-7-carboxamide]: 350 nM; for `COc1cc(C(=O)N[C@@H]2CCCCNC2)cc2nc(-c3cc4ccc(N(C(F)F)S(C)(=O)=O)nc4n3CC3CC3)c(C)n12` [Example 316, ~{N}-[(3~{R})-azepan-3-yl]-2-[1-(cyclopropylmethyl)-6-[difluoromethyl (methylsulfonyl)amino]pyrrolo[2,3-b]pyridin-2-yl]-5-methoxy-3-methylimidazo[1,2-a]pyridine-7-carboxamide]: 306 nM.
Under `COc1cc(C(=O)N[C@H]2CNC[C@@H](C)C2)cc2nc(-c3cc4ccc(N(C(F)F)S(C)(=O)=O)nc4n3CC3CC3)c(C)n12` [Example 317, 2-[1-(cyclopropylmethyl)-6-[difluoromethyl (methylsulfonyl)amino]pyrrolo[2,3-b]pyridin-2-yl]-5-methoxy-3-methyl-~{N}-[(3~{R},5~{S})-5-methylpiperidin-3-yl] imidazo[1,2-a]pyridine-7-carboxamide] stands 813 nM; under `COc1cc(C(=O)N2C[C@@H]3NCCO[C@@H]3C2)cc2nc(-c3cc4ccc(N(C(F)F)S(C)(=O)=O)nc4n3CC3CC3)c(C)n12` [Example 320, ~{N}-[2-[7-[(4~{a}~{S},7~{a}~{R})-3,4,4~{a},5,7,7~{a}-hexahydro-2~{H}-pyrrolo[3,4-b][1,4]oxazine-6-carbonyl]-5-methoxy-3-methylimidazo [1,2-a]pyridin-2-yl]-1-(cyclopropylmethyl)pyrrolo [2,3-b]pyridin-6-yl]-~{N}-(difluoromethyl) methanesulfonamide], 19100 nM.
In the case of `COc1cc(C(=O)N2CC[C@@H]3CCNC[C@@H]32)cc2nc(-c3cc4ccc(N(C(F)F)S(C)(=O)=O)nc4n3CC3CC3)c(C)n12` [Example 321, ~{N}-[2-[7-[(3~{a}~{S},7~{a}~{R})-2,3,3~{a},4,5,6,7,7~{a}-octahydropyrrolo[2,3-c]pyridine-1-carbonyl]-5-methoxy-3-methylimidazo[1,2-a]pyridin-2-yl]-1-(cyclopropylmethyl)pyrrolo [2,3-b]pyridin-6-yl]-~{N}-(difluoromethyl) methanesulfonamide], the IC50 was determined as 278 nM.
On to `COc1cc(C(=O)N2CCC3CCNCC32)cc2nc(-c3cc4ccc(N(C(F)F)S(C)(=O)=O)nc4n3CC3CC3)c(C)n12` (centres unmarked) [Example 322, ~{N}-[2-[7-(2,3,3~{a}, 4,5,6,7,7~ {a}-octahydropyrrolo[2,3-c]pyridine-1-carbonyl)-5-methoxy-3-methylimidazo [1,2-a]pyridin-2-yl]-1-(cyclopropylmethyl)pyrrolo [2,3-b]pyridin-6-yl]-~{N}-(difluoromethyl) methanesulfonamide], for which the IC50 came out at 258 nM.
Regarding `COc1cc(C(=O)N2CC[C@H]3CCN[C@H]3C2)cc2nc(-c3cc4ccc(N(C(F)F)S(C)(=O)=O)nc4n3CC3CC3)c(C)n12` [Example 325], the IC50 worked out at 154 nM.
For `COc1cc(C(=O)N2[C@@H]3CC[C@H]2C[C@@H](N)C3)cc2nc(-c3cc4ccc(N(C(F)F)S(C)(=O)=O)nc4n3CC3CC3)c(C)n12` [Example 326, ~{N}-[2-[7-[(1~{R}, 5~{S})-3-amino-8-azabicyclo[3.2.1]octane-8-carbonyl]-5-methoxy-3-methylimidazo[1,2-a]pyridin-2-yl]-1-(cyclopropylmethyl)pyrrolo[2,3-b]pyridin-6-yl]-~{N}-(difluoromethyl) methanesulfonamide], the IC50 worked out at 3560 nM.
As for `COc1cc(C(=O)N(C)C2CCCNC2)cc2nc(-c3cc4ccc(N(C(F)F)S(C)(=O)=O)nc4n3CC3CC3)c(C)n12` (centres unmarked) [Example 328, 2-[1-(cyclopropylmethyl)-6-[difluoromethyl (methylsulfonyl)amino]pyrrolo[2,3-b]pyridin-2-yl]-5-methoxy-~{N}, 3-dimethyl-~{N}-piperidin-3-ylimidazo [1,2-a]pyridine-7-carboxamide], the IC50 worked out at 4880 nM.
The same measure for `COc1cc(C(=O)N2C[C@@H]3CCC[C@H]2[C@H]3N)cc2nc(-c3cc4ccc(N(C(F)F)S(C)(=O)=O)nc4n3CC3CC3)c(C)n12` [Example 329, N-[2-[7-[(1S,5S,8S)-8-amino-6-azabicyclo[3.2.1]octane-6-carbonyl]-5-methoxy-3-methyl-imidazo[1,2-a]pyridin-2-yl]-1-(cyclopropylmethyl)pyrrolo [2,3-b]pyridin-6-yl]-N-(difluoromethyl) methanesulfonamide]: 5660 nM; for `COc1cc(C(=O)N2C[C@H]3CCC[C@@H]2[C@@H]3N)cc2nc(-c3cc4ccc(N(C(F)F)S(C)(=O)=O)nc4n3CC3CC3)c(C)n12` [Example 330, N-[2-[7-[(1R,5R,8R)-8-amino-6-azabicyclo[3.2.1]octane-6-carbonyl]-5-methoxy-3-methyl-imidazo [1,2-a]pyridin-2-yl]-1-(cyclopropylmethyl)pyrrolo [2,3-b]pyridin-6-yl]-N-(difluoromethyl) methanesulfonamide]: 233 nM; for `COc1cc(C(=O)N2[C@@H]3CCC[C@H]2[C@@H](N)C3)cc2nc(-c3cc4ccc(N(C(F)F)S(C)(=O)=O)nc4n3CC3CC3)c(C)n12` [Example 331, N-[2-[7-[(1R,5S,6S)-6-amino-8-azabicyclo[3.2.1]octane-8-carbonyl]-5-methoxy-3-methyl-imidazo [1,2-a]pyridin-2-yl]-1-(cyclopropylmethyl)pyrrolo [2,3-b]pyridin-6-yl]-N-(difluoromethyl) methanesulfonamide]: 1420 nM.
In the case of `COc1cc(C(=O)N2[C@H]3CCC[C@@H]2[C@H](N)C3)cc2nc(-c3cc4ccc(N(C(F)F)S(C)(=O)=O)nc4n3CC3CC3)c(C)n12` [Example 332, N-[2-[7-[(1S,5R,6R)-6-amino-8-azabicyclo[3.2.1]octane-8-carbonyl]-5-methoxy-3-methyl-imidazo [1,2-a]pyridin-2-yl]-1-(cyclopropylmethyl)pyrrolo [2,3-b]pyridin-6-yl]-N-(difluoromethyl) methanesulfonamide], the IC50 came out at 390 nM.
Under `COc1cc(C(=O)N2CC[C@@H](OC)[C@@H](N)C2)cc2nc(-c3cc4ccc(N(C(F)F)S(C)(=O)=O)nc4n3CC3CC3)c(C)n12` [Example 335, ~{N}-[2-[7-[(3~{S}, 4~{R})-3-amino-4-methoxypiperidine-1-carbonyl]-5-methoxy-3-methylimidazo [1,2-a]pyridin-2-yl]-1-(cyclopropylmethyl)pyrrolo [2,3-b]pyridin-6-yl]-~{N}-(difluoromethyl) methanesulfonamide] stands 178 nM; under `COc1cc(C(=O)N2C[C@H]3CCCN[C@H]3C2)cc2nc(-c3cc4ccc(N(C(F)F)S(C)(=O)=O)nc4n3CC3CC3)c(C)n12` [Example 336, ~{N}-[2-[7-[(4~{a}~{R},7~{a}~{R})-1,2,3,4,4~{a},5,7,7~{a}-octahydropyrrolo[3,4-b]pyridine-6-carbonyl]-5-methoxy-3-methylimidazo[1,2-a]pyridin-2-yl]-1-(cyclopropylmethyl)pyrrolo [2,3-b]pyridin-6-yl]-~{N}-(difluoromethyl) methanesulfonamide], 484 nM; under `COc1cc(C(=O)N2C[C@@H]3CCCN[C@@H]3C2)cc2nc(-c3cc4ccc(N(C(F)F)S(C)(=O)=O)nc4n3CC3CC3)c(C)n12` [Example 337, ~{N}-[2-[7-[(4~{a}~{S}, 7~{a}~{S})-1,2,3,4,4~{a},5,7,7~{a}-octahydropyrrolo[3,4-b]pyridine-6-carbonyl]-5-methoxy-3-methylimidazo[1,2-a]pyridin-2-yl]-1-(cyclopropylmethyl)pyrrolo [2,3-b]pyridin-6-yl]-~{N}-(difluoromethyl) methanesulfonamide], 12100 nM.
The same measure for `COc1cc(C(=O)NC2C3CCCNC32)cc2nc(-c3cc4ccc(N(C(F)F)S(C)(=O)=O)nc4n3CC3CC3)c(C)n12` (centres unmarked) [Example 339, ~{N}-(2-azabicyclo[4.1.0]heptan-7-yl)-2-[1-(cyclopropylmethyl)-6-[difluoromethyl (methylsulfonyl)amino]pyrrolo[2,3-b]pyridin-2-yl]-5-methoxy-3-methylimidazo[1,2-a]pyridine-7-carboxamide]: 21500 nM.
Under `CCO[C@@H]1CCN(C(=O)c2cc(OC)n3c(C)c(-c4cc5ccc(N(C(F)F)S(C)(=O)=O)nc5n4CC4CC4)nc3c2)C[C@@H]1N` [Example 340, ~{N}-[2-[7-[(3~{S}, 4~{R})-3-amino-4-ethoxypiperidine-1-carbonyl]-5-methoxy-3-methylimidazo [1,2-a]pyridin-2-yl]-1-(cyclopropylmethyl)pyrrolo [2,3-b]pyridin-6-yl]-~{N}-(difluoromethyl) methanesulfonamide] stands 230 nM; under `COc1cc(C(=O)N2CCC3(CCCN3)CC2)cc2nc(-c3cc4ccc(N(C(F)F)S(C)(=O)=O)nc4n3CC3CC3)c(C)n12` [Example 342, ~{N}-[1-(cyclopropylmethyl)-2-[7-(1,8-diazaspiro[4.5]decane-8-carbonyl)-5-methoxy-3-methylimidazo[1,2-a]pyridin-2-yl]pyrrolo[2,3-b]pyridin-6-yl]-~{N}-(difluoromethyl) methanesulfonamide], 14100 nM.

The record behind these values is patent publication US12240862B2, “Inhibitors of peptidylarginine deiminases” (Gilead Sciences, Inc., priority 2020, dated 2025).
